The values below are quoted from earlier work in article PMC4019989 (Clinical cancer research : an official journal of the …, 2009).

The data set concerns animals. The conditions noted are these: cited from earlier work.

As to `CC(C)C[C@H](NC(=O)[C@H](Cc1ccccc1)NC(=O)c1cnccn1)B(O)O` [bortezomib], the “Toxicity of consecutive-day dosing” value is recorded as “excessive toxicity”.
